What was measured:
Details in all cases: substance 10^−9M
primary human T-cells = test: Cytokine secretion on protein level in activated primary human T-cells (13-plex FACS / Luminex, supernatant); assay type: cell-based
In short: (§1)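 Cytokine protein in supernatant is read by multiplex FACS or Luminex. Tripeptide-treated HaCaT cells or blood-derived human T-cells are stimulated beforehand with PMA/Ionomycin or IFN-γ. The most relevant analytes are IL-1, IL-2, IL-6, IL-12p70, IL-17, IFN-γ and TNF-α, sampled 48 h and 72 h after stimulation.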

[1] = tested on: human keratinocyte cell line (HaCaT); test: Cytokine secretion on protein level in activated human keratinocyte cell line HaCaT (13-plex FACS / Luminex, supernatant); assay type: cell-based
In short: as §1

primary murine T-cells = test: Cytokine secretion on protein level in activated primary murine T-cells (13-plex FACS / Luminex, supernatant); assay type: cell-based, C57BL/6 mice
In short: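 T-cells from secondary lymphatic organs of naïve C57BL/6 mice, stimulated with PMA/Ionomycin or IFN-γ; supernatant cytokines measured by 13-plex FACS 48 h and 72 h after stimulation. In another run, PMA/Ionomycin-stimulated cells received compounds at 10^−7, 10^−9 and 10^−11 M, with IFN-γ, IL-17 and IL-10 measured by Luminex.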

[2] = primary human T-cells stimulated with IFN-γ
[3] = primary human T-cells stimulated with PBS
[4] = primary human T-cells stimulated with PMA/Ionomycin
[5] = HaCaT stimulated with PMA/Ionomycin
[6] = primary murine T-cells stimulated with IFN-γ
[7] = primary murine T-cells stimulated with PBS
[8] = primary murine T-cells stimulated with PMA/Ionomycin

With H-(L)-Lys-(L)-Pro-Alb-NH2 [Example 10] the IL-1 cytokine concentration (primary human T-cells; [2]) was 139.49 pg/mL, the IL-2 cytokine concentration (primary human T-cells; [2]) was 231.83 pg/mL and the IL-4 cytokine concentration (primary human T-cells; [2]) was 160.97 pg/mL. For the same substance, the IL-5 cytokine concentration (primary human T-cells; [2]) was 0 pg/mL, the IL-6 cytokine concentration (primary human T-cells; [2]) was 105.21 pg/mL and the IL-9 cytokine concentration (primary human T-cells; [2]) was 0 pg/mL. For the same substance, the IL-10 cytokine concentration (primary human T-cells; [2]) was 0 pg/mL, the IL-12p70 cytokine concentration (primary human T-cells; [2]) was 0 pg/mL and the IL-13 cytokine concentration (primary human T-cells; [2]) was 162.81 pg/mL. The IL-17 cytokine concentration (primary human T-cells; [2]) was 250.1 pg/mL, the IL-22 cytokine concentration (primary human T-cells; [2]) was 0 pg/mL and the TNF-α cytokine concentration (primary human T-cells; [2]) was 0 pg/mL. It also gave an IL-1 cytokine concentration (primary human T-cells; [3]) of 0 pg/mL, an IL-2 cytokine concentration (primary human T-cells; [3]) of 0 pg/mL and an IL-4 cytokine concentration (primary human T-cells; [3]) of 0 pg/mL. It also gave an IL-5 cytokine concentration (primary human T-cells; [3]) of 0 pg/mL, an IL-6 cytokine concentration (primary human T-cells; [3]) of 216.7 pg/mL and an IL-9 cytokine concentration (primary human T-cells; [3]) of 23.18 pg/mL. For the same substance, the IL-10 cytokine concentration (primary human T-cells; [3]) was 48.86 pg/mL, the IL-12p70 cytokine concentration (primary human T-cells; [3]) was 0 pg/mL and the IL-13 cytokine concentration (primary human T-cells; [3]) was 0 pg/mL. For the same substance, the IL-17 cytokine concentration (primary human T-cells; [3]) was 0 pg/mL, the IL-22 cytokine concentration (primary human T-cells; [3]) was 0 pg/mL and the INF-α cytokine concentration (primary human T-cells; [3]) was 0 pg/mL. It also gave a TNF-α cytokine concentration (primary human T-cells; [3]) of 21.65 pg/mL, an IL-1 cytokine concentration (primary human T-cells; [4]) of 878.53 pg/mL and an IL-2 cytokine concentration (primary human T-cells; [4]) of 5107.74 pg/mL. It also gave an IL-4 cytokine concentration (primary human T-cells; [4]) of 179.62 pg/mL, an IL-5 cytokine concentration (primary human T-cells; [4]) of 416.25 pg/mL and an IL-6 cytokine concentration (primary human T-cells; [4]) of 1255.58 pg/mL. The IL-9 cytokine concentration (primary human T-cells; [4]) was 461.98 pg/mL, the IL-10 cytokine concentration (primary human T-cells; [4]) was 729.43 pg/mL and the IL-12p70 cytokine concentration (primary human T-cells; [4]) was 0 pg/mL. For the same substance, the IL-13 cytokine concentration (primary human T-cells; [4]) was 1183.46 pg/mL, the IL-17 cytokine concentration (primary human T-cells; [4]) was 2234.39 pg/mL and the IL-22 cytokine concentration (primary human T-cells; [4]) was 0 pg/mL. It also gave an INF-α cytokine concentration (primary human T-cells; [4]) of 11538.53 pg/mL, a TNF-α cytokine concentration (primary human T-cells; [4]) of 4132.03 pg/mL and an IL-1 cytokine concentration ([1]; HaCaT stimulated with IFN-γ) of 0 pg/mL. For the same substance, the IL-2 cytokine concentration ([1]; HaCaT stimulated with IFN-γ) was 0 pg/mL, the IL-4 cytokine concentration ([1]; HaCaT stimulated with IFN-γ) was 183.12 pg/mL and the IL-5 cytokine concentration ([1]; HaCaT stimulated with IFN-γ) was 88.64 pg/mL. It also gave an IL-6 cytokine concentration ([1]; HaCaT stimulated with IFN-γ) of 346.73 pg/mL, an IL-9 cytokine concentration ([1]; HaCaT stimulated with IFN-γ) of 0 pg/mL and an IL-10 cytokine concentration ([1]; HaCaT stimulated with IFN-γ) of 0 pg/mL. The IL-12p70 cytokine concentration ([1]; HaCaT stimulated with IFN-γ) was 0 pg/mL, the IL-13 cytokine concentration ([1]; HaCaT stimulated with IFN-γ) was 1904.09 pg/mL and the IL-17 cytokine concentration ([1]; HaCaT stimulated with IFN-γ) was 189.1 pg/mL. For the same substance, the IL-22 cytokine concentration ([1]; HaCaT stimulated with IFN-γ) was 0 pg/mL, the TNF-α cytokine concentration ([1]; HaCaT stimulated with IFN-γ) was 0 pg/mL and the IFN-γ cytokine concentration ([1]; HaCaT stimulated with PBS) was 469.17 pg/mL. It also gave an IL-1 cytokine concentration ([1]; HaCaT stimulated with PBS) of 170.16 pg/mL, an IL-2 cytokine concentration ([1]; HaCaT stimulated with PBS) of 0 pg/mL and an IL-4 cytokine concentration ([1]; HaCaT stimulated with PBS) of 218.04 pg/mL. It also gave an IL-5 cytokine concentration ([1]; HaCaT stimulated with PBS) of 0 pg/mL, an IL-6 cytokine concentration ([1]; HaCaT stimulated with PBS) of 125.38 pg/mL and an IL-9 cytokine concentration ([1]; HaCaT stimulated with PBS) of 5.28 pg/mL. It also gave an IL-10 cytokine concentration ([1]; HaCaT stimulated with PBS) of 0 pg/mL, an IL-12p70 cytokine concentration ([1]; HaCaT stimulated with PBS) of 0 pg/mL and an IL-13 cytokine concentration ([1]; HaCaT stimulated with PBS) of 1864.02 pg/mL. For the same substance, the IL-17 cytokine concentration ([1]; HaCaT stimulated with PBS) was 230.84 pg/mL, the IL-22 cytokine concentration ([1]; HaCaT stimulated with PBS) was 0 pg/mL and the TNF-α cytokine concentration ([1]; HaCaT stimulated with PBS) was 0 pg/mL. The IFN-γ cytokine concentration [1, 5] was 327.78 pg/mL, the IL-1 cytokine concentration [1, 5] was 251.13 pg/mL and the IL-2 cytokine concentration [1, 5] was 189.17 pg/mL. It also gave an IL-4 cytokine concentration [1, 5] of 0 pg/mL, an IL-5 cytokine concentration [1, 5] of 0 pg/mL and an IL-6 cytokine concentration [1, 5] of 315.82 pg/mL. For the same substance, the IL-9 cytokine concentration [1, 5] was 14.67 pg/mL, the IL-10 cytokine concentration [1, 5] was 34.84 pg/mL and the IL-12p70 cytokine concentration [1, 5] was 0 pg/mL. It also gave an IL-13 cytokine concentration [1, 5] of 0 pg/mL, an IL-17 cytokine concentration [1, 5] of 45.41 pg/mL and an IL-22 cytokine concentration [1, 5] of 0 pg/mL. For the same substance, the TNF-α cytokine concentration [1, 5] was 53.51 pg/mL, the IL-1 cytokine concentration (primary murine T-cells; [6]) was 77.81 pg/mL and the IL-2 cytokine concentration (primary murine T-cells; [6]) was 93.19 pg/mL. For the same substance, the IL-4 cytokine concentration (primary murine T-cells; [6]) was 81.11 pg/mL, the IL-5 cytokine concentration (primary murine T-cells; [6]) was 238.38 pg/mL and the IL-6 cytokine concentration (primary murine T-cells; [6]) was 139.83 pg/mL. It also gave an IL-10 cytokine concentration (primary murine T-cells; [6]) of 2024.06 pg/mL, an IL-13 cytokine concentration (primary murine T-cells; [6]) of 0 pg/mL and an IL-17 cytokine concentration (primary murine T-cells; [6]) of 0 pg/mL. For the same substance, the IL-21 cytokine concentration (primary murine T-cells; [6]) was 0 pg/mL, the IL-22 cytokine concentration (primary murine T-cells; [6]) was 57.35 pg/mL and the IL-27 cytokine concentration (primary murine T-cells; [6]) was 1.29 pg/mL. For the same substance, the TNF-α cytokine concentration (primary murine T-cells; [6]) was 32.42 pg/mL, the IFN-γ cytokine concentration (primary murine T-cells; [7]) was 0 pg/mL and the IL-1 cytokine concentration (primary murine T-cells; [7]) was 66.84 pg/mL. The IL-2 cytokine concentration (primary murine T-cells; [7]) was 132.67 pg/mL, the IL-4 cytokine concentration (primary murine T-cells; [7]) was 65.63 pg/mL and the IL-5 cytokine concentration (primary murine T-cells; [7]) was 229.8 pg/mL. For the same substance, the IL-6 cytokine concentration (primary murine T-cells; [7]) was 177.95 pg/mL, the IL-10 cytokine concentration (primary murine T-cells; [7]) was 923.65 pg/mL and the IL-13 cytokine concentration (primary murine T-cells; [7]) was 0 pg/mL. For the same substance, the IL-17 cytokine concentration (primary murine T-cells; [7]) was 0 pg/mL, the IL-21 cytokine concentration (primary murine T-cells; [7]) was 0 pg/mL and the IL-22 cytokine concentration (primary murine T-cells; [7]) was 71.47 pg/mL. The IL-27 cytokine concentration (primary murine T-cells; [7]) was 0 pg/mL, the TNF-α cytokine concentration (primary murine T-cells; [7]) was 77.08 pg/mL and the IFN-γ cytokine concentration (primary murine T-cells; [8]) was 2377.98 pg/mL. The IL-1 cytokine concentration (primary murine T-cells; [8]) was 173.61 pg/mL, the IL-2 cytokine concentration (primary murine T-cells; [8]) was 179.75 pg/mL and the IL-4 cytokine concentration (primary murine T-cells; [8]) was 56.84 pg/mL. The IL-5 cytokine concentration (primary murine T-cells; [8]) was 267.52 pg/mL, the IL-6 cytokine concentration (primary murine T-cells; [8]) was 164.16 pg/mL and the IL-10 cytokine concentration (primary murine T-cells; [8]) was 1182.68 pg/mL. For the same substance, the IL-13 cytokine concentration (primary murine T-cells; [8]) was 0 pg/mL, the IL-17 cytokine concentration (primary murine T-cells; [8]) was 86.12 pg/mL and the IL-21 cytokine concentration (primary murine T-cells; [8]) was 0 pg/mL. It also gave an IL-22 cytokine concentration (primary murine T-cells; [8]) of 44.47 pg/mL, an IL-27 cytokine concentration (primary murine T-cells; [8]) of 8.48 pg/mL and a TNF-α cytokine concentration (primary murine T-cells; [8]) of 33.37 pg/mL.

From US10954269B2, “Anti-inflammatory tripeptides” (Dr. August Wolff Gmbh & Co. KG Arzneimittel, priority 2013, dated 2021)
